This is an account of results in US5578324A, “Peptide proteinaceous drug nasal powder composition” (Teijin Limited, priority 1993, dated 1996).

Structures can show the parent of a compound that is named as a salt. Where a SMILES comes first, the peptide text is derived from it. [ ]: non-standard residue; d: D form. The star is where a group is joined. Sta = CC(C)C[C@H](N)[C@@H](O)CC(=O)O; Isovaleryl = CC(C)CC(=O)*

Holding throughout (format): biochemical
In test [1] the test system is Human Nasal Mucosal Homogenate. Description: Inhibitory effect on degradation of peptide proteinaceous drug in human nasal mucosal homogenate. Also noted: concentration or dose not given beside the values. Particulars: 37° C., HPLC; for Inhibitor (%) ACTH: degradation of adrenocorticotropic hormone (ACTH); for Inhibitor (%) CGRP: degradation of calcitonin gene related peptide (CGRP); for Inhibitor (%) GLU: degradation of glucagon (GLU); for Inhibitor (%) GHRH: degradation of growth hormone releasing hormone (GHRH); for Inhibitor (%) INS: degradation of insulin (INS); for Inhibitor (%) LHRH: degradation of luteinizing hormone releasing hormone (LHRH); for Inhibitor (%) PTH: degradation of parathyroid hormone (PTH); for Inhibitor (%) PDGF: degradation of platelet-derived growth factor (PDGF); for Inhibitor (%) SCT: degradation of salmon calcitonin (SCT); for Inhibitor (%) GIF: degradation of somatostatin (GIF); for Inhibitor (%) S.p: degradation of substance P (S.p). The procedure:
A homogenate solution was prepared from human nasal mucosa to give 1 mg/ml of protein. […] The amounts of the peptide proteinaceous drug not yet cleaved after a predetermined time were measured by HPLC to find the amounts of decomposition. The inhibition rates were calculated by the following formula.
Inhibition rate (%)=(A-B)/A×100
A: Amount of peptide proteinaceous drug cleaved when enzyme inhibitor or absorption accelerant of present invention is not added to homogenate
B: Amount of peptide proteinaceous drug cleaved when enzyme inhibitor or absorption accelerant of present invention is added to homogenate

A further test has as its target T1, trypsin (Bos taurus, UniProt P00760).
T1 construct: gene PRSS1
T1 sequence (P00760 24-246): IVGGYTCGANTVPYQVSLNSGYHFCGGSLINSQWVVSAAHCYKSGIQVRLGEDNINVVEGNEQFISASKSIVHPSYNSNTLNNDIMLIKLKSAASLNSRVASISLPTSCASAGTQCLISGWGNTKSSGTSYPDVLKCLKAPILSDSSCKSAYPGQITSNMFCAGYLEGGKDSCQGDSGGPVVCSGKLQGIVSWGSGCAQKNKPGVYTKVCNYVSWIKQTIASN
Description: Trypsin inhibiting activity.

The test system of test [2] is Human Nasal Mucosal Homogenate. Description: Activity of protease in human nasal mucosal homogenate (cleavage of synthesized substrates). The note with it: substrate 0.1 mM, 37° C., amount of substrate cleaved by HPLC. The procedure:
A homogenate solution was prepared from human nasal mucosa to give 1 mg/ml of protein. Next, synthesis substrates corresponding to the various proteases shown in Table 1 were added to 0.5 ml portions of the homogenate solution to give 0.1 mM concentrations. The results were incubated at 37° C. The amounts of the substrates remaining after a predetermined time were measured by HPLC to find the amounts of substrates cleaved and find the activity of the various proteases.

For the compound `NCc1ccc(S(N)(=O)=O)cc1` [Mafenide acetate, 4-(aminomethyl) benzenesulfamine], in test [1], the “Inhibitor (%) ACTH” value is on record as 78%, the “Inhibitor (%) CGRP” value is reported as 70%, the “Inhibitor (%) GLU” value was found to be 56% and the “Inhibitor (%) GHRH” value amounted to 66%. In test [1], the “Inhibitor (%) INS” value stood at 52%, the “Inhibitor (%) LHRH” value is given as 32%, the “Inhibitor (%) PTH” value worked out at 75% and the “Inhibitor (%) PDGF” value stood at 59%. In test [1], the “Inhibitor (%) SCT” value is 67%, the “Inhibitor (%) GIF” value amounted to 74% and the “Inhibitor (%) S.p” value worked out at 55%. The trypsin inhibiting activity entry on trypsin is “no trypsin inhibiting activity”.

For the compound `CC(C)CC(=O)N[C@H](C(=O)N[C@H](C(=O)N[C@@H](CC(C)C)[C@@H](O)CC(=O)N[C@@H](C)C(=O)N[C@@H](CC(C)C)[C@@H](O)CC(=O)O)C(C)C)C(C)C` [Pepstatin] (Isovaleryl-VV[Sta]A[Sta]-OH), in test [1], the “Inhibitor (%) ACTH” value is recorded as 4%, the “Inhibitor (%) CGRP” value is given as 10%, the “Inhibitor (%) GLU” value is 8% and the “Inhibitor (%) GHRH” value came out at 0%. Moreover, in test [1], the “Inhibitor (%) INS” value was found to be 15%, the “Inhibitor (%) LHRH” value worked out at 0%, the “Inhibitor (%) PTH” value was 10% and the “Inhibitor (%) PDGF” value turned out to be 0%. In addition, in test [1], the “Inhibitor (%) SCT” value was 10%, the “Inhibitor (%) GIF” value turned out to be 0% and the “Inhibitor (%) S.p” value amounted to 0%.

Take `NCc1ccc(C(=O)O)cc1` [p-Aminomethyl benzoic acid]: in test [1], the “Inhibitor (%) ACTH” value amounted to 84%, the “Inhibitor (%) CGRP” value amounted to 72%, the “Inhibitor (%) GLU” value is reported as 60% and the “Inhibitor (%) GHRH” value worked out at 70%. In test [1], the “Inhibitor (%) INS” value came out at 74%, the “Inhibitor (%) LHRH” value is listed as 54%, the “Inhibitor (%) PTH” value was determined as 80% and the “Inhibitor (%) PDGF” value is 65%. Also, in test [1], the “Inhibitor (%) SCT” value is listed as 76%, the “Inhibitor (%) GIF” value came to 85% and the “Inhibitor (%) S.p” value was determined as 58%.

For the compound `NC[C@H]1CC[C@H](C(=O)c2ccc(CCC(=O)O)cc2)CC1` [Rotraxate hydrochloride, 3-((p-(trans-4-aminomethylcyclohexylcarbonyl)phenyl)) propionic acid], in test [1], the “Inhibitor (%) ACTH” value is reported as 74%, the “Inhibitor (%) CGRP” value worked out at 75%, the “Inhibitor (%) GLU” value is reported as 62% and the “Inhibitor (%) GHRH” value stood at 75%. In test [1], the “Inhibitor (%) INS” value is on record as 84%, the “Inhibitor (%) LHRH” value was 56%, the “Inhibitor (%) PTH” value was 76% and the “Inhibitor (%) PDGF” value worked out at 59%. In test [1], the “Inhibitor (%) SCT” value was determined as 80%, the “Inhibitor (%) GIF” value amounted to 86% and the “Inhibitor (%) S.p” value came to 53%. Also, on trypsin, the trypsin inhibiting activity entry is given as “no trypsin inhibiting activity”.

On to `NC[C@H]1CC[C@H](C(=O)Oc2ccc(CCC(=O)O)cc2)CC1` [Cetraxate hydrochloride, trans-(4-aminomethyl) cyclohexane carboxylic acid p-(2-carboxyethyl)phenyl ester], for which, in test [1], the “Inhibitor (%) ACTH” value is 70%, the “Inhibitor (%) CGRP” value is reported as 70%, the “Inhibitor (%) GLU” value worked out at 54% and the “Inhibitor (%) GHRH” value came out at 70%. In test [1], the “Inhibitor (%) INS” value amounted to 80%, the “Inhibitor (%) LHRH” value came out at 48%, the “Inhibitor (%) PTH” value was found to be 75% and the “Inhibitor (%) PDGF” value is recorded as 58%. In test [1], the “Inhibitor (%) GIF” value turned out to be 80% and the “Inhibitor (%) S.p” value turned out to be 54%. Further, the trypsin inhibiting activity entry on trypsin is listed as “no trypsin inhibiting activity”.

With Bz--Arg--MCA, in test [2], the “Activity (nM/h/mg protein)” value is 1 nM/h/mg protein.

As for `NCCc1ccc(O)c(O)c1` [Dopamine hydrochloride, 4-(2-aminoethyl)-1,2 benzenediol], in test [1], the “Inhibitor (%) ACTH” value is listed as 77%, the “Inhibitor (%) CGRP” value amounted to 72%, the “Inhibitor (%) GLU” value worked out at 50% and the “Inhibitor (%) GHRH” value is listed as 50%. Also, in test [1], the “Inhibitor (%) INS” value worked out at 52%, the “Inhibitor (%) LHRH” value turned out to be 29%, the “Inhibitor (%) PTH” value is on record as 70% and the “Inhibitor (%) PDGF” value stood at 55%. In test [1], the “Inhibitor (%) SCT” value is listed as 64%, the “Inhibitor (%) GIF” value is 72% and the “Inhibitor (%) S.p” value was found to be 60%. Further, on trypsin, the trypsin inhibiting activity entry is listed as “no trypsin inhibiting activity”.

With `CC(C)C[C@H](NC(=O)[C@@H](NC(=O)N[C@@H](Cc1ccccc1)C(=O)O)[C@@H]1CCN=C(N)N1)C(=O)N[C@H](C=O)Cc1ccccc1` [Chymostatin], in test [1], the “Inhibitor (%) ACTH” value worked out at 12%, the “Inhibitor (%) CGRP” value came to 23%, the “Inhibitor (%) GLU” value turned out to be 35% and the “Inhibitor (%) GHRH” value is recorded as 25%. Moreover, in test [1], the “Inhibitor (%) INS” value is reported as 22%, the “Inhibitor (%) LHRH” value is 16%, the “Inhibitor (%) PTH” value amounted to 15% and the “Inhibitor (%) PDGF” value was 10%. In addition, in test [1], the “Inhibitor (%) SCT” value was 38%, the “Inhibitor (%) GIF” value is on record as 25% and the “Inhibitor (%) S.p” value is on record as 15%.

In the case of `NC[C@H]1CC[C@H](C(=O)O)CC1` [Tranexamic acid, trans-4-(aminomethyl) cyclohexane carboxylic acid], in test [1], the “Inhibitor (%) ACTH” value worked out at 80%, the “Inhibitor (%) CGRP” value worked out at 75%, the “Inhibitor (%) GLU” value was found to be 68% and the “Inhibitor (%) GHRH” value is 75%. Further, in test [1], the “Inhibitor (%) INS” value was 79%, the “Inhibitor (%) LHRH” value is listed as 58%, the “Inhibitor (%) PTH” value is on record as 78% and the “Inhibitor (%) PDGF” value is 68%. Moreover, in test [1], the “Inhibitor (%) SCT” value is 73%, the “Inhibitor (%) GIF” value is 80% and the “Inhibitor (%) S.p” value amounted to 65%. In addition, the trypsin inhibiting activity result on trypsin was “no trypsin inhibiting activity”.

As for `NCc1ccccc1` [Benzylamine], in test [1], the “Inhibitor (%) ACTH” value turned out to be 80%, the “Inhibitor (%) CGRP” value turned out to be 76%, the “Inhibitor (%) GLU” value is reported as 48% and the “Inhibitor (%) GHRH” value was determined as 68%. In addition, in test [1], the “Inhibitor (%) INS” value stood at 68%, the “Inhibitor (%) LHRH” value turned out to be 49%, the “Inhibitor (%) PTH” value amounted to 80% and the “Inhibitor (%) PDGF” value worked out at 52%. Also, in test [1], the “Inhibitor (%) SCT” value is 70%, the “Inhibitor (%) GIF” value came out at 78% and the “Inhibitor (%) S.p” value was determined as 54%.

In the case of `O=C(O)CNC(=O)C(CS)Cc1ccccc1` (stereo not shown) [Thiorphan], in test [1], the “Inhibitor (%) ACTH” value came to 0%, the “Inhibitor (%) CGRP” value is given as 0%, the “Inhibitor (%) GLU” value stood at 0% and the “Inhibitor (%) GHRH” value came out at 0%. In addition, in test [1], the “Inhibitor (%) INS” value came to 0%, the “Inhibitor (%) LHRH” value is recorded as 0%, the “Inhibitor (%) PTH” value came out at 0% and the “Inhibitor (%) PDGF” value worked out at 0%. Moreover, in test [1], the “Inhibitor (%) SCT” value is recorded as 0% and the “Inhibitor (%) S.p” value was determined as 0%.

Regarding `Cc1ccc(S(=O)(=O)N[C@@H](Cc2ccccc2)C(=O)CCl)cc1` [TPCK], in test [1], the “Inhibitor (%) ACTH” value turned out to be 8%, the “Inhibitor (%) CGRP” value came to 0%, the “Inhibitor (%) GLU” value came to 5% and the “Inhibitor (%) GHRH” value was 0%. Moreover, in test [1], the “Inhibitor (%) INS” value was 7%, the “Inhibitor (%) LHRH” value was determined as 5%, the “Inhibitor (%) PTH” value was found to be 10% and the “Inhibitor (%) PDGF” value stood at 3%. Moreover, in test [1], the “Inhibitor (%) SCT” value was found to be 0%, the “Inhibitor (%) GIF” value is listed as 11% and the “Inhibitor (%) S.p” value was determined as 10%.

Regarding `CCOC(=O)c1ccc(OC(=O)CCCCCNC(=N)N)cc1` [Gabexate], in test [1], the “Inhibitor (%) ACTH” value was found to be 48%, the “Inhibitor (%) CGRP” value was found to be 49%, the “Inhibitor (%) GLU” value came to 56% and the “Inhibitor (%) GHRH” value is recorded as 40%. Further, in test [1], the “Inhibitor (%) INS” value is given as 46%, the “Inhibitor (%) LHRH” value is recorded as 27%, the “Inhibitor (%) PTH” value turned out to be 44% and the “Inhibitor (%) PDGF” value amounted to 43%. In addition, in test [1], the “Inhibitor (%) SCT” value came out at 53%, the “Inhibitor (%) GIF” value was found to be 56% and the “Inhibitor (%) S.p” value was 40%.
